Read-outs that look alike come from different tables or passages of the source.
Key:
Assay type in all cases: binding
various enzymes [1] = biological target: various enzymes (Homo sapiens, UniProt O15075); details: compound 1 uM
Protocol: (§1) Ambit profiling was conducted in accordance with the manufacturer's instructions.

various enzymes [2] = biological target: various enzymes (Homo sapiens, UniProt P57059); details: compound 1 uM
Protocol: as §1

various enzymes [3] = biological target: various enzymes (Homo sapiens, UniProt Q96PN8); details: compound 1 uM
Protocol: as §1

various enzymes [4] = biological target: various enzymes (Homo sapiens, UniProt O15530); details: compound 1 uM
Protocol: as §1

various enzymes [5] = biological target: various enzymes (Homo sapiens, UniProt Q14680); details: compound 1 uM
Protocol: as §1

various enzymes [6] = biological target: various enzymes (Homo sapiens, UniProt Q9P2K8, S808G)
Protocol: as §1

various enzymes [7] = biological target: various enzymes (Homo sapiens, UniProt O15146); details: compound 1 uM
Protocol: as §1

various enzymes [8] = biological target: various enzymes (Plasmodium falciparum, UniProt P62344)
Protocol: as §1

various enzymes [9] = biological target: various enzymes (Homo sapiens, UniProt O00141); details: compound 1 uM
Protocol: as §1

various enzymes [10] = biological target: various enzymes (Homo sapiens, UniProt P45984); details: compound 1 uM
Protocol: as §1

various enzymes [11] = biological target: various enzymes (Homo sapiens, UniProt O95835); details: compound 1 uM
Protocol: as §1

various enzymes [12] = biological target: various enzymes (Homo sapiens, UniProt P07332); details: compound 1 uM
Protocol: as §1

various enzymes [13] = biological target: T1, various enzymes (Homo sapiens, UniProt Q13873); details: compound 1 uM
T1 sequence (Q13873 27-1038): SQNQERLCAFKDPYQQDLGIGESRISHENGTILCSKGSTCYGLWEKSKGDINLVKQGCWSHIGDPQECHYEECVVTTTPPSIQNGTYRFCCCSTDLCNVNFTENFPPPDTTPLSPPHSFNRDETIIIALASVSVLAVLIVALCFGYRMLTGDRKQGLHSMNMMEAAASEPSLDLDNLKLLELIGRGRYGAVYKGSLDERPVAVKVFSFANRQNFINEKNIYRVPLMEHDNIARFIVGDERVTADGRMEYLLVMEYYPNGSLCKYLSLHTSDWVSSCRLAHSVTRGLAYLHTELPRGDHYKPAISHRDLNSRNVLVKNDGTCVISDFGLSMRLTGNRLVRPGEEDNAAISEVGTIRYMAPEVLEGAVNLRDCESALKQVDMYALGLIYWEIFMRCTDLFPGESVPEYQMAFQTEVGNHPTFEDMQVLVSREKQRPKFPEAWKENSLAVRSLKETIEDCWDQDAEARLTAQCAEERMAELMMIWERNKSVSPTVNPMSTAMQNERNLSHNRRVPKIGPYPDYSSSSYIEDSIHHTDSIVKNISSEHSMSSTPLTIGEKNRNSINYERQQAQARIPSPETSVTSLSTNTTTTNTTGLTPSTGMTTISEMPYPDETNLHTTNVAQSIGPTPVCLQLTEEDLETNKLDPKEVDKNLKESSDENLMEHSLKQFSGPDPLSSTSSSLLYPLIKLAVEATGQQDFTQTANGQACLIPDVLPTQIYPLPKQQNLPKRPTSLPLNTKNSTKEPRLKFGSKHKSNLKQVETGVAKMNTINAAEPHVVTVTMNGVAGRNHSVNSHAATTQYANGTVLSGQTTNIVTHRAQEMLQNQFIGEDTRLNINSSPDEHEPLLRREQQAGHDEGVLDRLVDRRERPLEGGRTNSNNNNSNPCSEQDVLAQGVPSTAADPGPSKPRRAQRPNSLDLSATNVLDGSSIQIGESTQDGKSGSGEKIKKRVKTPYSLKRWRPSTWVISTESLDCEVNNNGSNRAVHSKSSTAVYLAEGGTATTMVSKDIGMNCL
Protocol: as §1

various enzymes [14] = biological target: various enzymes (Homo sapiens, UniProt P48729); details: compound 1 uM
Protocol: as §1

various enzymes [15] = biological target: various enzymes (Homo sapiens, UniProt Q9UM73, C1156Y)
Protocol: as §1

various enzymes [16] = biological target: various enzymes (Homo sapiens, UniProt Q13188); details: compound 1 uM
Protocol: as §1

various enzymes [17] = biological target: various enzymes (Homo sapiens, UniProt Q9NYY3); details: compound 1 uM
Protocol: as §1

various enzymes [18] = biological target: various enzymes (Homo sapiens, UniProt P78356); details: compound 1 uM
Protocol: as §1

various enzymes [19] = biological target: various enzymes (Homo sapiens, UniProt P48736); details: compound 1 uM
Protocol: as §1

various enzymes [20] = biological target: various enzymes (Homo sapiens, UniProt P48730); details: compound 1 uM
Protocol: as §1

various enzymes [21] = biological target: various enzymes (Homo sapiens, UniProt P53355); details: compound 1 uM
Protocol: as §1

various enzymes [22] = biological target: various enzymes (Homo sapiens, UniProt P00519); details: compound 1 uM
Protocol: as §1

various enzymes [23] = biological target: various enzymes (Homo sapiens, UniProt P0C264); details: compound 1 uM
Protocol: as §1

various enzymes [24] = biological target: various enzymes (Homo sapiens, UniProt Q8NEV4); details: compound 1 uM
Protocol: as §1

various enzymes [25] = biological target: various enzymes (Homo sapiens, UniProt Q9BXA7); details: compound 1 uM
Protocol: as §1

various enzymes [26] = biological target: various enzymes (Homo sapiens, UniProt P27361); details: compound 1 uM
Protocol: as §1

various enzymes [27] = biological target: various enzymes (Homo sapiens, UniProt Q86V86); details: compound 1 uM
Protocol: as §1

various enzymes [28] = biological target: various enzymes (Homo sapiens, UniProt Q8WTQ7); details: compound 1 uM
Protocol: as §1

various enzymes [29] = biological target: various enzymes (Homo sapiens, UniProt P42685); details: compound 1 uM
Protocol: as §1

various enzymes [30] = biological target: various enzymes (Homo sapiens, UniProt P46734); details: compound 1 uM
Protocol: as §1

Chain of various enzymes (Homo sapiens, UniProt P00519) (P00519 whole entry): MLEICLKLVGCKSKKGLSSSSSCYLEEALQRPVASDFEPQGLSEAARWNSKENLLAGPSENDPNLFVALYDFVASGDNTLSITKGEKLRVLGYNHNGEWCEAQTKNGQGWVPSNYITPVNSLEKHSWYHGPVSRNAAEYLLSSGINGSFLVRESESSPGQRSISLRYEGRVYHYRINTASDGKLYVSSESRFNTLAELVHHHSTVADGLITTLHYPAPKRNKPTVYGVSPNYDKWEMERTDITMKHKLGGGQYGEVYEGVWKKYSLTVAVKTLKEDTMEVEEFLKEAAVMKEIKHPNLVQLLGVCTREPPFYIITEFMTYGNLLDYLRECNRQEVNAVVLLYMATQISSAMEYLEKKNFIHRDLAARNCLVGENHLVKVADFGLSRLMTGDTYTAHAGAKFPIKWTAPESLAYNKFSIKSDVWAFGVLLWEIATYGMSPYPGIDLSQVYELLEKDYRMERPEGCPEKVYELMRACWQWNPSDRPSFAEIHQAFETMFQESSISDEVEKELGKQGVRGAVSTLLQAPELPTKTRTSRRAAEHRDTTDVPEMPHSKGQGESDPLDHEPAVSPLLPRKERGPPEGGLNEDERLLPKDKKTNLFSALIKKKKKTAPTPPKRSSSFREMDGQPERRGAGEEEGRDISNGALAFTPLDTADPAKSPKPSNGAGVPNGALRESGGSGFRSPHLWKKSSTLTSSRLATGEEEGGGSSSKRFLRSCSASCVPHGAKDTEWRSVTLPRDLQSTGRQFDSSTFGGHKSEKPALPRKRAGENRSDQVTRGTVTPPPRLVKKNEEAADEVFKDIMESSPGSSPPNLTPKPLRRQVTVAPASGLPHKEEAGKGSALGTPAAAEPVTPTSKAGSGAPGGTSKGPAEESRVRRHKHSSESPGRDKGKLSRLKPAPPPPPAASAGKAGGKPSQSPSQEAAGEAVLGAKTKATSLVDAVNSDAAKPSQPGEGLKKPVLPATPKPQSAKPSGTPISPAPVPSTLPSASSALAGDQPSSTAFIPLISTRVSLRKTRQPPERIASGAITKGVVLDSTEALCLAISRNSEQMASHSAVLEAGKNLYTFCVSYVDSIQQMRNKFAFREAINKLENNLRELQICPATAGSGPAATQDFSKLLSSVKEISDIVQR
Chain of various enzymes (Homo sapiens, UniProt P53355) (P53355 whole entry): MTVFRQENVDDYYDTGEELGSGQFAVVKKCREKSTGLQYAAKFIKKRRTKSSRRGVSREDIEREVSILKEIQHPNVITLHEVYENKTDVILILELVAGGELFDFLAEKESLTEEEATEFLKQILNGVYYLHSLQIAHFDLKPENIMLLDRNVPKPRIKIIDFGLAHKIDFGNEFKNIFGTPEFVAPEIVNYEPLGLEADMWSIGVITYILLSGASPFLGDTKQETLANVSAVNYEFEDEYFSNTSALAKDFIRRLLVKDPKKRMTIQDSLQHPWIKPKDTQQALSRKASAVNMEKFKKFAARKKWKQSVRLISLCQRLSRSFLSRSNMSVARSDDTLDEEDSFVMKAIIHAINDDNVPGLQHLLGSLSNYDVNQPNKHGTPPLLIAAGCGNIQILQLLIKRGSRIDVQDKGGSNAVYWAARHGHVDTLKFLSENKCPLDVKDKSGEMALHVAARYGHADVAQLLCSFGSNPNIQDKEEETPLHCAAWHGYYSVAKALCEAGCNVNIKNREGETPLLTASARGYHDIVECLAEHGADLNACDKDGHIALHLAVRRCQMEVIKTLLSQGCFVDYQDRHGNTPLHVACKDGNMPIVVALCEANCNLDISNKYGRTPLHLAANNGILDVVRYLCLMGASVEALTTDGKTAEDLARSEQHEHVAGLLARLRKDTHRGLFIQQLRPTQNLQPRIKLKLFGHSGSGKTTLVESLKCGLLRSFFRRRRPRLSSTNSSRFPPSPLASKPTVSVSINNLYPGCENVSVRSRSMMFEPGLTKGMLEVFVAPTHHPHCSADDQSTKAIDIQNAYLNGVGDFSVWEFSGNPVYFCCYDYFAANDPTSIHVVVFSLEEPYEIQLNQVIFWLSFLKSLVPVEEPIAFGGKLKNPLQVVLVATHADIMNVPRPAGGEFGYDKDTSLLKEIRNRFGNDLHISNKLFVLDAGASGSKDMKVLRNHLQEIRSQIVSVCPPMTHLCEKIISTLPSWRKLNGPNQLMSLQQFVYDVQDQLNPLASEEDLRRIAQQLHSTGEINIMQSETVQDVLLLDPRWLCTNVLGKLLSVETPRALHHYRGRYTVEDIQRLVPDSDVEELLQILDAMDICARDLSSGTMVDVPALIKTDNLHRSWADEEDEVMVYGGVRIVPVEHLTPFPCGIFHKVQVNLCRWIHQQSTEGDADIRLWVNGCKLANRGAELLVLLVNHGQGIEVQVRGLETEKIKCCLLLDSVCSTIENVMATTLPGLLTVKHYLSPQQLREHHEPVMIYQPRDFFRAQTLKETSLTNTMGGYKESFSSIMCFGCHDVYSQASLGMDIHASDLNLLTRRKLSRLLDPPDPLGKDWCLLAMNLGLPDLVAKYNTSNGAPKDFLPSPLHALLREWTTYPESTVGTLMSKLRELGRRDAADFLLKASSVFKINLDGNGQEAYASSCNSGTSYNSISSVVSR
Chain of various enzymes (Homo sapiens, UniProt Q8NEV4) (Q8NEV4 whole entry): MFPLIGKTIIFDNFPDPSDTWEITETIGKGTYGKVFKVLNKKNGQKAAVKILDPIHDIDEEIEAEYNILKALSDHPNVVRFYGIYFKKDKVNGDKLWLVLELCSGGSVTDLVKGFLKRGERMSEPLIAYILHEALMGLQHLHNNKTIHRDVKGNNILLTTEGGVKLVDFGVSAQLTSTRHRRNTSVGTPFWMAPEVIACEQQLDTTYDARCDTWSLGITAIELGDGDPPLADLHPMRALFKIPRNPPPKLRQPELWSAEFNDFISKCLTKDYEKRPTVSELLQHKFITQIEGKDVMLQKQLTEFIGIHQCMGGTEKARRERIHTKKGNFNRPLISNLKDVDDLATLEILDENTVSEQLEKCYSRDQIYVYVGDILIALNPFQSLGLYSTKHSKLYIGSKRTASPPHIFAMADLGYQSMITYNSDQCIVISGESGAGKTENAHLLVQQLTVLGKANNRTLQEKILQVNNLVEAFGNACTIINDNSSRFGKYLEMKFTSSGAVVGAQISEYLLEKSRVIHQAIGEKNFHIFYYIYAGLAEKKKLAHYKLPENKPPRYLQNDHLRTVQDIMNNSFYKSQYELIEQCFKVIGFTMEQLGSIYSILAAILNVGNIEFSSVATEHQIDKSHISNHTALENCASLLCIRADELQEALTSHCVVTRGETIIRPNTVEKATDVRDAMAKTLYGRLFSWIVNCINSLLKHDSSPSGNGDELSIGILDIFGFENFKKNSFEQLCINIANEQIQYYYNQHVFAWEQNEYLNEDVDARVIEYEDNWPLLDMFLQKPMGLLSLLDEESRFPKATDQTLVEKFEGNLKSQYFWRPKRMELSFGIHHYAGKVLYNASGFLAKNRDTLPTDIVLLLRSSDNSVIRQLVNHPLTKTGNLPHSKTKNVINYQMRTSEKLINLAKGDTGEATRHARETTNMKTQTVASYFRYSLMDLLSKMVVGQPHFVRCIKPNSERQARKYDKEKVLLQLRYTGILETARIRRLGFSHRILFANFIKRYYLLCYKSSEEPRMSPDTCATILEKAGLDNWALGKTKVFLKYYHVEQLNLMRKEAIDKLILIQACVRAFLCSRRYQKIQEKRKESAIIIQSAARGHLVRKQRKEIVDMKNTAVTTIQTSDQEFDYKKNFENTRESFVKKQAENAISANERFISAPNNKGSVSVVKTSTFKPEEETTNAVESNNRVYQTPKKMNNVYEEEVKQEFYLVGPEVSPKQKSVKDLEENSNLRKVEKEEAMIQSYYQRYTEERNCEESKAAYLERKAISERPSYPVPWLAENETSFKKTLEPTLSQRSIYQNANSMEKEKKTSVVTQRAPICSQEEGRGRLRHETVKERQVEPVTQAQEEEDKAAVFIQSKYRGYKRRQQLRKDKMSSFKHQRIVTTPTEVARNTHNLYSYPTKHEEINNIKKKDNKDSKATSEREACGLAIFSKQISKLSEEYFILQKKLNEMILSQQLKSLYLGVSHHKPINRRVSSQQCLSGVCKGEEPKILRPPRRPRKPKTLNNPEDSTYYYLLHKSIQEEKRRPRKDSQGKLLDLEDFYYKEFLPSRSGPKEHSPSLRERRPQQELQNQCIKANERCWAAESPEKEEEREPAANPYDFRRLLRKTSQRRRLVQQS
Chain of various enzymes (Homo sapiens, UniProt P46734) (P46734 whole entry): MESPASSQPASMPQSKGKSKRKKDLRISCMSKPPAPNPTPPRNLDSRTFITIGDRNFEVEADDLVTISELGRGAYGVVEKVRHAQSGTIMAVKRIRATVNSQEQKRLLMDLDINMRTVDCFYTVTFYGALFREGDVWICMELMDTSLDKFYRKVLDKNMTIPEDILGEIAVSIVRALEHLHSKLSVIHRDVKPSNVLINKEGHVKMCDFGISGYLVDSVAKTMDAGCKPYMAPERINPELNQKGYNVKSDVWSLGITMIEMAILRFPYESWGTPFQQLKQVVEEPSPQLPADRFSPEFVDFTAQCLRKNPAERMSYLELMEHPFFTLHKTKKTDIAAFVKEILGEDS
Chain of various enzymes (Homo sapiens, UniProt P78356) (P78356 whole entry): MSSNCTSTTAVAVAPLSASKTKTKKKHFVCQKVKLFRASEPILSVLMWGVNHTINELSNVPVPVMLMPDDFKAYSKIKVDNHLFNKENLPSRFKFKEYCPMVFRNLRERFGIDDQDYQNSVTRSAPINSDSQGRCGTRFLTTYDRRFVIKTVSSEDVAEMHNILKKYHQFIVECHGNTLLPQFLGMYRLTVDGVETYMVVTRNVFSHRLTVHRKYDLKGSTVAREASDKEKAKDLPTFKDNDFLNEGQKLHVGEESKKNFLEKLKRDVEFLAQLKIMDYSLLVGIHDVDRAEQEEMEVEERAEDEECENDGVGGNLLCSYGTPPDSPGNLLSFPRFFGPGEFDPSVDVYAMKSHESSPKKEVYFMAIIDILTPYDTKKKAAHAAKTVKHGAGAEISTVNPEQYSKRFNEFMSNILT

Compound: CC(C)N1Cc2nn(C)cc2-c2cnc3[nH]cc(c3c2)-c2cn(nc2C(F)(F)F)CCCC1=O [Compound 45, (Z)-5-isopropyl-31-methyl-13-(trifluoromethyl)-11H,21H,31H-5-aza-2(3,5)-pyrrolo[2,3-b]pyridina-1(4,1),3(4,3)-dipyrazolacyclononaphan-6-one]
- Ambit profiling: DCAMKL1 (various enzymes [1]): 80
- Ambit profiling: SIK (various enzymes [2]): 74
- Ambit profiling: TSSK3 (various enzymes [3]): 90
- Ambit profiling: PDPK1 (various enzymes [4]): 98
- Ambit profiling: MELK (various enzymes [5]): 0.25
- Ambit profiling: GCN2(Kin.Dom.2, S808G) (various enzymes [6]; compound 1 uM): 100
- Ambit profiling: MUSK (various enzymes [7]): 89
- Ambit profiling: PFCDPK1(P. falciparum) (various enzymes [8]; compound 1 uM): 2.8
- Ambit profiling: SGK (various enzymes [9]): 1.3
- Ambit profiling: JNK2 (various enzymes [10]): 21
- Ambit profiling: LATS1 (various enzymes [11]): 100
- Ambit profiling: FES (various enzymes [12]): 74
- Ambit profiling: BMPR2 (various enzymes [13]): 78
- Ambit profiling: CSNK1A1 (various enzymes [14]): 78
- Ambit profiling: ALK(C1156Y) (various enzymes [15]; compound 1 uM): 16
- Ambit profiling: MST2 (various enzymes [16]): 0
- Ambit profiling: PLK2 (various enzymes [17]): 90
- Ambit profiling: PIP5K2B (various enzymes [18]): 23
- Ambit profiling: PIK3CG (various enzymes [19]): 94
- Ambit profiling: CSNK1D (various enzymes [20]): 28
- Ambit profiling: DAPK1 (various enzymes [21]): 92
- Ambit profiling: ABL1-nonphosphorylated (various enzymes [22]): 20
- Ambit profiling: ABL1-phosphorylated (various enzymes [22]): 9
- Ambit profiling: SgK110 (various enzymes [23]): 98
- Ambit profiling: MYO3A (various enzymes [24]): 23
- Ambit profiling: TSSK1B (various enzymes [25]): 83
- Ambit profiling: ERK1 (various enzymes [26]): 100
- Ambit profiling: PIM3 (various enzymes [27]): 94
- Ambit profiling: GRK7 (various enzymes [28]): 28
- Ambit profiling: FRK (various enzymes [29]): 11
- Ambit profiling: MEK3 (various enzymes [30]): 0

Compound: COc1c2c(nn1C)CN(C(C)C)C(=O)CCCn1cc(c(C(F)(F)F)n1)-c1c[nH]c3ncc-2cc13 [Compound 50, (Z)-5-isopropyl-35-methoxy-31-methyl-13-(trifluoromethyl)-11H,21H,31H-5-aza-2(3,5)-pyrrolo[2,3-b]pyridina-1(4,1),3(4,3)-dipyrazolacyclononaphan-6-one]
- Ambit profiling: DCAMKL1 (various enzymes [1]): 54
- Ambit profiling: SIK (various enzymes [2]): 57
- Ambit profiling: TSSK3 (various enzymes [3]): 100
- Ambit profiling: PDPK1 (various enzymes [4]): 100
- Ambit profiling: MELK (various enzymes [5]): 11
- Ambit profiling: GCN2(Kin.Dom.2, S808G) (various enzymes [6]): 100
- Ambit profiling: MUSK (various enzymes [7]): 90
- Ambit profiling: PFCDPK1(P. falciparum) (various enzymes [8]): 24
- Ambit profiling: SGK (various enzymes [9]): 6
- Ambit profiling: JNK2 (various enzymes [10]): 7.5
- Ambit profiling: LATS1 (various enzymes [11]): 72
- Ambit profiling: FES (various enzymes [12]): 31
- Ambit profiling: BMPR2 (various enzymes [13]): 89
- Ambit profiling: CSNK1A1 (various enzymes [14]): 74
- Ambit profiling: ALK(C1156Y) (various enzymes [15]): 26
- Ambit profiling: MST2 (various enzymes [16]): 3.1
- Ambit profiling: PLK2 (various enzymes [17]): 95
- Ambit profiling: PIP5K2B (various enzymes [18]): 35
- Ambit profiling: PIK3CG (various enzymes [19]): 54
- Ambit profiling: CSNK10 (various enzymes [20]): 11
- Ambit profiling: DAPK1 (various enzymes [21]): 65
- Ambit profiling: ABL1-nonphosphorylated (various enzymes [22]): 11
- Ambit profiling: ABL1-phosphorylated (various enzymes [22]): 3.8
- Ambit profiling: SgK110 (various enzymes [23]): 99
- Ambit profiling: MYO3A (various enzymes [24]): 11
- Ambit profiling: TSSK1B (various enzymes [25]): 43
- Ambit profiling: ERK1 (various enzymes [26]): 95
- Ambit profiling: PIM3 (various enzymes [27]): 91
- Ambit profiling: GRK7 (various enzymes [28]): 9.7
- Ambit profiling: FRK (various enzymes [29]): 10
- Ambit profiling: MEK3 (various enzymes [30]): 7.1
